The test system of experiment [1] is Human alphaherpesvirus 1. The experiment in a line: Compound was evaluated for the antiviral activity against Herpes simplex virus type 1 (HSV-1) VR-3 strain by using plaque reduction assay. The class given is functional. To be noted: read-out: ED50 (the source's name). For orientation: Plaques are areas of infected cells; plaque reduction assays count them against a control.

The subject of experiment [2] is Human alphaherpesvirus 2. The experiment in a line: Compound was evaluated for the antiviral activity against Herpes simplex virus type 2 (HSV-2) MS strain by using plaque reduction assay. The format is functional. As to conditions: read-out: ED50 (the source's name).
Experiment [3] deals with Human alphaherpesvirus 3. The experiment in a line: Compound was evaluated for the antiviral activity against Varicella-Zoster virus (VZV) Oka strain by using plaque reduction assay. The format is functional. As to conditions: read-out: ED50 (the source's name).
Experiment [4] relates to CCRF-HSB-2. The experiment in a line: Compound was evaluated for the cytotoxicity against human T-cell leukemia, CCRF-HSB-2 by using MTT assay. The format is functional, cell-based. Background: Tetrazolium dyes change colour on reduction, which living cells bring about.

We go through five molecules from ChEMBL document CHEMBL1132073, “Synthesis of novel 4'-C-methyl-pyrimidine nucleosides and their biological activities” (Bioorg Med Chem Lett, 1999).

One may read the IC50 as the midpoint of a concentration-inhibition curve. Read a low IC50 as greater potency in that assay.

≈ marks a conversion by molar mass, not a printed value. Bounds are passed on as bounds.

Consider `C[C@@]1(CO)O[C@H](n2ccc(N)nc2=O)C[C@H]1O`, for which the EC50 turned out to be 0.071 µg/mL (≈ 0.294 µM) in experiment [1], 0.27 µg/mL (≈ 1.12 µM) in experiment [2] and 0.094 µg/mL (≈ 0.39 µM) in experiment [3]. For the same molecule, half-maximal inhibition in experiment [4] (IC50) was put at 0.12 µg/mL (≈ 0.497 µM).

Consider `O=c1[nH]c(=O)n([C@@H]2O[C@H](CO)[C@@H](O)[C@H]2O)cc1/C=C/Br`, for which the results for the EC50 in experiment [1], in experiment [2] and in experiment [3] were 0.048 µg/mL (≈ 0.137 µM), 62 µg/mL (≈ 178 µM) and 0.00083 µg/mL (≈ 0.00238 µM), respectively. The IC50 in experiment [4] is above 100 µg/mL.

`C[C@]1(CO)OC(n2cc(/C=C/Br)c(=O)[nH]c2=O)[C@H](O)[C@@H]1O` (stereo not given in full): the values for the EC50 in experiment [1], in experiment [2] and in experiment [3] were 24.4 µg/mL (≈ 67.2 µM), 63.5 µg/mL (≈ 175 µM) and 0.18 µg/mL (≈ 0.496 µM), respectively. The 50% inhibitory concentration (IC50) in experiment [4] is above 100 µg/mL.

Consider `C[C@]1(CO)O[C@@H](n2cc(/C=C/Br)c(=O)[nH]c2=O)CC1O` (single isomer, unassigned), for which the EC50 in experiment [1] stood at 0.0053 µg/mL (≈ 0.0153 µM); in experiment [2], 0.26 µg/mL (≈ 0.749 µM); in experiment [3], 0.00077 µg/mL (≈ 0.00222 µM). This molecule yielded a concentration for half-maximal inhibition (IC50) in experiment [4] of 0.45 µg/mL (≈ 1.3 µM).

Consider `O=c1[nH]c(=O)n([C@H]2C[C@H](O)[C@@H](CO)O2)cc1/C=C/Br` [BRIVUDINE], for which the EC50 in experiment [1] is 0.052 µg/mL (≈ 0.156 µM); in experiment [2], above 100 µg/mL; in experiment [3] it was 0.013 µg/mL (≈ 0.039 µM). In experiment [4], the IC50 was above 100 µg/mL.
